pEC50: −log10 of the molar value.
Assays:
[1] = Microsomal stability (rat); format: in vitro ADME; settings: rat liver microsomes 0.5 mg/mL; read-out: Microsomal stability (in vitro CLint), Rat
Method: (§1) The master solution was prepared as follows.
(§2) Two separate experiments were performed as follows:
(§3) With NADPH: 10 μL of 20 mg/mL liver microsomes and 40 μL of 10 mM NADPH were added to the incubations. The final concentrations of microsomes and NADPH were 0.5 mg/mL and 1 mM, respectively.
(§4) Without NADPH: 10 μL of 20 mg/mL liver microsomes and 40 μL of ultra-pure H2O were added to the incubations. The final concentration of microsomes was 0.5 mg/mL.
(§5) The reaction was started with the addition of 4 μL of 3, 10, 30 and 100 μM test compound solution or control compound solution at the final concentration of 0.03, 0.1, 0.3 and 1 μM and carried out at 37° C.
(§6) Aliquots of 50 μL were taken from the reaction solution at 0, 15, 30, 45 and 60 min. The reaction was stopped by the addition of 4 volumes of cold acetonitrile with IS (100 nM alprazolam, 200 nM labetalol, 200 nM caffeine and 2 μM ketoprofen). Samples were centrifuged at 3, 220 g for 40 minutes. Aliquot of 100 μL of the supernatant was mixed with 100 μL of ultra-pure H2O and then used for LC-MS/MS analysis. […]
(§7) Peak areas were determined from extracted ion chromatograms. The slope value, k, was determined by linear regression of the natural logarithm of the remaining percentage of the parent drug vs. incubation time curve.
(§8) The in vitro half-life (in vitro t1/2) was determined from the slope value: […]

[2] = Microsomal stability (human); format: in vitro ADME; settings: human liver microsomes 0.5 mg/mL; read-out: Microsomal stability (in vitro CLint), Human
Method: as §1, §2, §3, §4, §5, §6, §7, §8

[3] = Microsomal stability (dog); format: in vitro ADME; settings: dog liver microsomes 0.5 mg/mL; read-out: Microsomal stability (in vitro CLint), Dog
Method: as §1, §2, §3, §4, §5, §6, §7, §8

[4] = Rat pharmacokinetic study (plasma); format: in vivo, male SD rats; settings: IV 1 mg/kg
Method: The rat pharmacokinetics studies of exemplary compounds 03-3, 03-5, and 03-115 were conducted with male SD rats. These rats were typically about 6-8 weeks old, weighing 200 g to 300 g. Animals were fasted overnight and free access to food 4 hours after dosing. A required volume of vehicle was added to reach the target concentration of the test article and vehicle component to prepare for the dosing. The dosing vehicle was PEG400 or 30% PEG400 in saline for IV, or 0.5% methylcellulose in water for PO. For IV dosing, the animals were administered intravenously via tail vein. For PO dosing, the animals were administered via oral gavage. After dosing, blood sample was collected (˜0.2 mL per time point) through jugular vein or heart puncture. Blood of each sample was transferred into plastic micro centrifuge tubes containing EDTA-K2. Collection tubes with blood samples and anticoagulant were inverted several times for proper mixing of the tube contents and then placed on wet ice. The blood samples were centrifuged at 2000 g for 5 minutes at 4° C. to obtain plasma which was stored in a freezer at −75±15° C. prior to analysis. Samples were analyzed using LC-MS/MS. WinNonlin were used for pharmacokinetic calculations.

β1 adrenergic receptor = target: T1, β1 adrenergic receptor (Homo sapiens, UniProt P08588); assay: cAMP Gs dynamic HTRF assay, β1 expressing CHO cells; format: cell-based
T1 construct: expressed in transfected cells
Method: (§9) cAMP homogeneous time-resolved fluorescence (HTRF). Compound efficacy was determined using the cAMP Gs dynamic HTRF assay (Cisbio, catalog #62AM4PEC) largely following the manufacturer's instructions, also detailed below.
(§10) Compound preparation. […] Standard serial dilution curves were 10-point, 5-fold dilutions starting from a highest concentration of 10 μM. […] Assay plates were centrifuged at 500×g for 10 seconds. Compounds and IBMX were prepared at 2× final dose to compensate for addition of cells.
(§11) Cell preparation. […] Cells were harvested using assay PBS, counted manually by hemocytometer or by an automated cell counter, pelleted by centrifugation (200×g, 5 minutes) and resuspended in 37° C. […]
(§12) HTRF reagent addition, reading and data analysis. […] Plates were centrifuged again at 500×g for 10 seconds, and HTRF was measured using a Tecan Spark plate reader at 50 flashes per well. […] Potency estimates (EC50) were derived from the four-parameter nonlinear regression of the concentration-effect curve and an estimate of relative efficacy was determined by comparing the magnitude of the test compound HTRF signal window (min-max dose) with the signal window of the full agonist control, isoproterenol.

β2 adrenergic receptor = target: T2, β2 adrenergic receptor (Homo sapiens, UniProt P07550); assay: cAMP Gs dynamic HTRF assay, β2 expressing CHO cells; format: cell-based
T2 construct: expressed in transfected cells
Method: as §9, §10, §11, §12

T2 sequence (P07550 whole entry): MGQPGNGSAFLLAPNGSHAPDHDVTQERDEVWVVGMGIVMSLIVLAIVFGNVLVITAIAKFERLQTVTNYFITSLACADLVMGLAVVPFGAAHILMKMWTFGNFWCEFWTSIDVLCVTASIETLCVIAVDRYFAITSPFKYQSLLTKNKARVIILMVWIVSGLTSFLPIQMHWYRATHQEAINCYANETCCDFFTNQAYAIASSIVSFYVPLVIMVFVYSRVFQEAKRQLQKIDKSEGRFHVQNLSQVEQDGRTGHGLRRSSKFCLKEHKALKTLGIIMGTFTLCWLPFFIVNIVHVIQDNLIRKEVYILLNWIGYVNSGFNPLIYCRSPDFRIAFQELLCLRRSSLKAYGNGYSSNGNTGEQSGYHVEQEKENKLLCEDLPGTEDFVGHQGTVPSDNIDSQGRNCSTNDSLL
T1 sequence (P08588 whole entry): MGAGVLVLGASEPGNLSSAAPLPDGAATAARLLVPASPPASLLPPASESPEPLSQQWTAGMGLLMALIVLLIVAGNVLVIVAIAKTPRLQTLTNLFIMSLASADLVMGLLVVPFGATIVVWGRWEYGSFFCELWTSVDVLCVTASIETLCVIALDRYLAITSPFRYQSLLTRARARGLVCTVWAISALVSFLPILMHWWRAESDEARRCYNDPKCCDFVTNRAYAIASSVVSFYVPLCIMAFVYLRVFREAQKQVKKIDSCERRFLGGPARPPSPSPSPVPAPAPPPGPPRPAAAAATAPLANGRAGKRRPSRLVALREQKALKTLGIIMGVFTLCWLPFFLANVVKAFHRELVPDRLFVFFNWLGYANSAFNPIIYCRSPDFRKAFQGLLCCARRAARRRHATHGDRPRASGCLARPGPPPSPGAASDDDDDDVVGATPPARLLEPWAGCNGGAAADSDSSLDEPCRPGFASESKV

Row | Compound | microsomal CLint [1] | microsomal CLint [2] | microsomal CLint [3] | AUClast [4] | Vss_obs [4] | pEC50 (β1 adrenergic receptor) | pEC50 (β2 adrenergic receptor)
1 | CC(C)(C)NC[C@H](O)c1cccc(C(F)(F)F)n1 [Compound 03-3] | 3.48 µL/min/mg | 3.49 µL/min/mg | 7.99 µL/min/mg | 546 ng·h/mL | 2.92 L/kg |  | 
2 | CC(C)(C)NC[C@H](O)c1cccc(C#N)n1 [Compound 03-5, (S)-6-(2-(tert-butylamino)-1-hydroxyethyl)picolinonitrile] | 2.53 µL/min/mg | 2.96 µL/min/mg | 4.32 µL/min/mg |  | 1.89 L/kg |  | 
3 | COc1ccc(C[C@@H](C)NC[C@H](O)c2ccc(C3CC3)nc2C)cc1 [Compound 03-269] |  |  |  |  |  | 7.00 to 8.00 | > 8.00

From patent US12448352B2, “Beta adrenergic agonist and methods of using the same” (Curasen Therapeutics, Inc., priority 2019, dated 2025)
